In patent US12552753B2, “Methods and compositions for targeting Tregs using CCR8 inhibitors” (Nanjing Immunophage Biomedical Co., Ltd., priority 2020, dated 2026) one finds IC50 data, which are given here for 33 molecules.

Where a name gives a salt, the structure may show the parent alone.

The experiment concerns the target CCR8 (Homo sapiens, UniProt P51685). Nature of the experiment: Tango assay (Tango-CCR8-Gal4-CHO-K1 cells, CCL1-stimulated, ONE-Glo luminescence). As to conditions: Tango Assay IC50, Inhibition of CCR8 Tango cell in vitro.

Sequence of CCR8 (P51685 whole entry, the tested form may be a part): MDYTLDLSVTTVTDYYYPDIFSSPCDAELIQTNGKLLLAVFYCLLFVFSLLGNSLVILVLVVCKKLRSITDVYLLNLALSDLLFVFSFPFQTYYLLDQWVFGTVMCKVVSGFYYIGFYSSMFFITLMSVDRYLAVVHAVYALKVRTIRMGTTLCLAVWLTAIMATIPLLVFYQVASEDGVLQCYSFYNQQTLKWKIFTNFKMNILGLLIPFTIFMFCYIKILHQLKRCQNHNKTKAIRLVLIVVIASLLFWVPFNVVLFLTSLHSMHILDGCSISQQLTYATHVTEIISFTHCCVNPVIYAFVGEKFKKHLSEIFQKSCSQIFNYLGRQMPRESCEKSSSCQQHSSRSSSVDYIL
Experimental: The Tango cell line was used to monitor antagonists-mediated receptor inactivation.
Tango cells (Tango-CCR8-Gal4-CHO-K1 cells constructed by Genomeditech) were passaged in complete medium (F12K, 10% FBS, 1% penicillin-streptomycin, 4 μg/ml puromycin, 4 μg/ml blasticidin and 100 μg/ml hygromycin) in incubator (37° C., 5% CO2).
Twenty-four hours before the seed, cells were cultured in 10 or 15 cm dish at a density of 30% confluence in culture medium (F12K, 10% FBS, 1% penicillin-streptomycin).
Cells were suspended in starving medium (F12K, 1% FBS, 1% penicillin-streptomycin) before being seeded into black/clear 96 wells (1×10^4 cells/70 μl/well) and incubated for 6 hours (37° C., 5% CO2). Different concentration of compound, dissolved in DMSO, was into the 96-well plates, with 50 μl in each well, and incubation continued for 1 hour at 37° C.
After the incubation, the medium was removed and the 96-well plate was put in −80° C. freezer for an hour or longer. The plate and the ONE-Glo reagent (Promega, Catalog Number: E6110) which was frozen in −80° C., were taken out and rewarmed to room temperature. The ONE-Glo working reagent was prepared by mixing ONE-Glo reagent with F12K (no FBS) (1:2), and 40 μl ONE-Glo working reagent was added into each well. After incubating for 10 minutes at room temperature, the plate was read using microplate luminescence reader at 560 nm.
The microplate reader records luminescence in relative luminescence units (RLU).

By IC50 is commonly meant the concentration that inhibits the measured activity by half. A lower IC50 goes with inhibition by little substance. For `Cc1ccccc1C(=O)Nc1cc(F)c(S(=O)(=O)N[C@@H](C)C2CCN(C)CC2)cc1Cl` [Compound 263A, (S)-N-(2-chloro-5-fluoro-4-(N-(1-(1-methylpiperidin-4-yl)ethyl)sulfamoyl)phenyl)-2-methylbenzamide hydrochloride], the 50% inhibitory concentration (IC50) amounted to 282 nM.

`Cc1ccccc1C(=O)Nc1cc(F)c(S(=O)(=O)NC(C)C2CCN(C)CC2)cc1Cl` (stereo not drawn) [Compound 263C, N-(2-chloro-5-fluoro-4-(N-(1-(1-methylpiperidin-4-yl)ethyl)sulfamoyl)phenyl)-2-methylbenzamide]: the IC50 came to 15 nM. For `Cc1ccccc1C(=O)Nc1ccc(S(=O)(=O)N[C@H](C)C2CCN(C)CC2)c(F)c1Cl` [Compound 264, (R)-N-(2-chloro-3-fluoro-4-(N-(1-(1-methylpiperidin-4-yl)ethyl)sulfamoyl)phenyl)-2-methylbenzamide] the value was 11 nM; for `COc1ccc(C(=O)Nc2ccc(S(=O)(=O)N[C@H](C)C3CCN(C)CC3)cc2C)c(C)c1` [Compound 266, (R)-4-methoxy-2-methyl-N-(2-methyl-4-(N-(1-(1-methylpiperidin-4-yl)ethyl)sulfamoyl)phenyl) benzamide], 3 nM; for `Cc1ccccc1C(=O)Nc1cc(C)c(S(=O)(=O)N[C@H](C)C2CCN(C)CC2)cc1Cl` [Compound 267A, (R)-N-(2-chloro-5-methyl-4-(N-(1-(1-methylpiperidin-4-yl)ethyl)sulfamoyl)phenyl)-2-methylbenzamide hydrochloride], 2 nM. For `Cc1cc(S(=O)(=O)N[C@H](C)C2CCN(C)CC2)ccc1NC(=O)c1c(C)cccc1F` [Compound 270, (R)-2-fluoro-6-methyl-N-(2-methyl-4-(N-(1-(1-methylpiperidin-4-yl)ethyl)sulfamoyl)phenyl) benzamide] the value was 50 nM; for `Cc1cc(S(=O)(=O)N[C@H](C)C2CCN(C)CC2)ccc1NC(=O)c1cc(Cl)ccc1C` [Compound 272, (R)-5-chloro-2-methyl-N-(2-methyl-4-(N-(1-(1-methylpiperidin-4-yl)ethyl)sulfamoyl)phenyl) benzamide], 1 nM. Under `Cc1cc(S(=O)(=O)N[C@H](C)C2CCN(C)CC2)ccc1NC(=O)c1ccc(Cl)cc1C` [Compound 273A, (R)-4-chloro-2-methyl-N-(2-methyl-4-(N-(1-(1-methylpiperidin-4-yl)ethyl)sulfamoyl)phenyl) benzamide hydrochloride] stands 1 nM; under `Cc1cc(S(=O)(=O)N[C@H](C)C2CCN(C)CC2)ccc1NC(=O)C1CCCCCC1` [Compound 274, (R)-N-(2-methyl-4-(N-(1-(1-methylpiperidin-4-yl)ethyl)sulfamoyl)phenyl) cycloheptane-carboxamide], 13 nM. `Cc1ccccc1C(=O)Nc1ccc(S(=O)(=O)N[C@H](C)C2CCN(C)CC2)c(Cl)c1Cl` [Compound 275, (R)-N-(2,3-dichloro-4-(N-(1-(1-methylpiperidin-4-yl)ethyl)sulfamoyl)phenyl)-2-methylbenzamide] gave an IC50 of 46 nM. Under `Cc1cc(S(=O)(=O)N[C@H](C)C2CCN(C)CC2)ccc1NC(=O)c1ccc(F)cc1C` [Compound 276, (R)-4-fluoro-2-methyl-N-(2-methyl-4-(N-(1-(1-methylpiperidin-4-yl)ethyl)sulfamoyl)phenyl) benzamide hydrochloride] stands 10 nM; under `Cc1ccc(C(=O)Nc2ccc(S(=O)(=O)N[C@H](C)C3CCN(C)CC3)cc2C)c(C)c1` [Compound 277, (R)-2,4-dimethyl-N-(2-methyl-4-(N-(1-(1-methylpiperidin-4-yl)ethyl)sulfamoyl)phenyl) benzamide], 2 nM. Under `Cc1ccccc1C(=O)Nc1ccc(S(=O)(=O)N[C@H](C)C2CCN(C)CC2)c(F)c1C` [Compound 278, (R)-N-(3-fluoro-2-methyl-4-(N-(1-(1-methylpiperidin-4-yl)ethyl)sulfamoyl)phenyl)-2-methylbenzamide hydrochloride] stands 6 nM; under `CCN1CCCN(C(c2cccc(NS(=O)(=O)c3ccc4ccccc4c3)c2)C(F)(F)F)CC1` (stereo not drawn) [Compound 279, N-(3-(1-(4-ethyl-1,4-diazepan-1-yl)-2,2,2-trifluoroethyl)phenyl)naphthalene-2-sulfonamide], > 100000 nM; under `CN(C)CCN1CCOc2cc(NS(=O)(=O)c3ccc4ccccc4c3)ccc2C1=O` [Compound 280, N-(4-(2-(dimethylamino)ethyl)-5-oxo-2,3,4,5-tetrahydrobenzo[f][1,4]oxazepin-8-yl)naphthalene-2-sulfonamide], > 100000 nM. As for `Cc1ccccc1C(=O)Nc1ccc(S(=O)(=O)NCc2ccccc2)c2ccccc12` [Compound 281, N-(4-(N-benzylsulfamoyl)naphthalen-1-yl)-2-methylbenzamide], the IC50 is > 100000 nM. Under `Cc1ccccc1C(=O)Nc1ccc(S(=O)(=O)NC(C)(C)c2ccccc2)c2ccccc12` [Compound 283, 2-methyl-N-(4-(N-(2-phenylpropan-2-yl)sulfamoyl)naphthalen-1-yl)benzamide] stands > 100000 nM. Under `CC(NS(=O)(=O)c1ccc2[nH]c(=O)ccc2c1)C1CC2CCC1CC2` (stereo not drawn) [Compound 284, N-(1-(bicyclo[2.2.2]octan-2-yl)ethyl)-2-oxo-1,2-dihydroquinoline-6-sulfonamide] stands > 100000 nM; under `Cc1cc(S(=O)(=O)N[C@H](C)C2CCN(C(=O)OC(C)(C)C)CC2)c(C)cc1NC(=O)c1ccccc1C` [Compound 285, tert-butyl (R)-4-(1-((2,5-dimethyl-4-(2-methylbenzamido)phenyl)sulfonamido)ethyl)piperidine-1-carboxylate], > 100000 nM; under `Cc1cc(S(=O)(=O)NC(C)(C)C2CCN(C)CC2)ccc1NC(=O)c1ccccc1C` [Compound 291, 2-methyl-N-(2-methyl-4-(N-(2-(1-methylpiperidin-4-yl)propan-2-yl)sulfamoyl)phenyl) benzamide], 245 nM. For `Cc1cc(S(=O)(=O)NC(C)C(C)(C)CN(C)C)ccc1NC(=O)c1ccccc1C` (stereo not drawn) [Compound 294, N-(4-(N-(4-(dimethylamino)-3,3-dimethylbutan-2-yl)sulfamoyl)-2-methylphenyl)-2-methylbenzamide hydrochlroide, hydrochloride] the value was > 100000 nM; for `Cc1cc(S(=O)(=O)N[C@H](C)C2CCN(C)CC2)ccc1NC(=O)C12CCC(CC1)CC2` [Compound 295, (R)-N-(2-methyl-4-(N-(1-(1-methylpiperidin-4-yl)ethyl)sulfamoyl)phenyl)bicyclo [2.2.2]oct-ane-1-carboxamide], 4.6 nM; for `Cc1cc(S(=O)(=O)N[C@H](C)C2CCN(C)CC2)ccc1NC(=O)c1cccc2c1CCC2` [Compound 296, (R)-N-(2-methyl-4-(N-(1-(1-methylpiperidin-4-yl)ethyl)sulfamoyl)phenyl)-2,3-dihydro-1H-indene-4-carboxamide], 2 nM. For the molecule `COc1cc(NC(=O)c2ccccc2C)c(C)cc1S(=O)(=O)N[C@H](C)C1CCN(C)CC1` [Compound 298, (R)-N-(5-methoxy-2-methyl-4-(N-(1-(1-methylpiperidin-4-yl)ethyl)sulfamoyl)phenyl)-2-methylbenzamide], inhibition was half-maximal at 17 nM (IC50).

Consider `Cc1cc(S(=O)(=O)N[C@H](C)C2CCN(C)CC2)ccc1NC1(c2ccccc2)COC1` [Compound 299, (R)-3-methyl-N-(1-(1-methylpiperidin-4-yl)ethyl)-4-((3-phenyloxetan-3-yl)amino) benzene-sulfonamide], for which the IC50 was > 100000 nM.

Take `Cc1cc(S(=O)(=O)N[C@H](C)C2CCN(C)CC2)ccc1NC(c1ccccc1)C(F)(F)F` (stereo partly drawn) [Compound 300, 3-methyl-N-((R)-1-(1-methylpiperidin-4-yl)ethyl)-4-((2,2,2-trifluoro-1-phenylethyl)amino)benzene-sulfonamide]: inhibition was half-maximal at 2300 nM (IC50). The molecule `Cc1cc(S(=O)(=O)N[C@H](C)C2CC[N+](C)(C)CC2)ccc1NC(=O)c1ccccc1C` [Compound 301, (R)-1,1-dimethyl-4-(1-((3-methyl-4-(2-methylbenzamido)phenyl)sulfonamido)ethyl)piperidin-1-ium.chloride.] yielded an IC50 of 102 nM.

As for `Cc1ccccc1C(=O)Nc1c(C)cc(S(=O)(=O)N[C@H](C)C2CCNCC2)cc1F` [Compound 302, (R)-N-(2-fluoro-6-methyl-4-(N-(1-(piperidin-4-yl)eth-yl)sulfamoyl)phen-yl)-2-methylbenzamide hydrochloride], the IC50 was > 100000 nM.

In turn, `Cc1ccccc1C(=O)Nc1cc(C)c(S(=O)(=O)N[C@H](C)C2CCN(C)CC2)cc1F` [Compound 303, (R)-N-(2-fluoro-5-methyl-4-(N-(1-(1-methylpiperidin-4-yl)ethyl)sulfamoyl)phenyl)-2-methylbenzamide hydrochloride] showed an IC50 of 9 nM. For the molecule `Cc1ccccc1C(=O)Nc1c(F)cc(S(=O)(=O)N[C@H](C)C2CCNCC2)cc1Cl` [Compound 304, (R)-N-(2-chloro-6-fluoro-4-(N-(1-(piperidin-4-yl)ethyl)sulfamoyl)phenyl)-2-methylbenzamide hydrochloride], the concentration for half-maximal inhibition (IC50) was 3 nM. Under `Cc1ccccc1C(=O)Nc1c(Cl)cc(S(=O)(=O)N[C@H](C)C2CCNCC2)cc1Cl` [Compound 305, (R)-N-(2,6-dichloro-4-(N-(1-(piperidin-4-yl)ethyl)sulfamoyl)phenyl)-2-methylbenzamide hydrochloride] stands 1.5 nM; under `Cc1ccccc1C(=O)Nc1cc(Cl)c(S(=O)(=O)N[C@H](C)C2CCN(C)CC2)cc1Cl` [Compound 306, (R)-N-(2,5-dichloro-4-(N-(1-(1-methylpiperidin-4-yl)ethyl)sulfamoyl)phenyl)-2-methylbenzamide hydrochloride], 6 nM. For `Cc1ccccc1C(=O)Nc1cc(Cl)c(S(=O)(=O)N[C@@H](C)C2CCN(C)CC2)cc1Cl` [Compound 307, (S)-N-(2,5-dichloro-4-(N-(1-(1-methylpiperidin-4-yl)ethyl)sulfamoyl)phenyl)-2-methylbenzamide hydrochloride] the value was > 100000 nM.
